# According to ChEMBL document CHEMBL3997789, “N-(2-(arylmethylimino)ethyl)-7-chloroquinolin-4-amine derivatives, synthesized by thermal and ultrasonic means, are endowed with anti-Zika virus activity” (Eur J Med Chem, 2017):
# Tests used:
# Zika virus [1] = experiment: Antiviral activity against Zika virus infected in African green monkey Vero cells assessed as inhibition of viral RNA replication at 10 uM after 24 hrs by RT-PCR method relative to control; format: functional
# Zika virus [2] = experiment: Antiviral activity against Zika virus infected in African green monkey Vero cells assessed as inhibition of viral RNA replication after 24 hrs by RT-PCR method; format: functional
# [3] = Cytotoxicity against African green monkey Vero cells after 72 hrs by XTT assay; format: cell-based; settings: chlorocebus sabaeus
# [4] = Selectivity index, ratio of CC50 for African green monkey Vero cells to EC50 for Zika virus; format: toxicity; settings: read-out: Ratio CC50/EC50
# Zika virus [5] = experiment: Potency index, ratio of chloroquine EC50 to test compound EC50 for Zika virus; format: functional
# Vero = experiment: Cytotoxicity against African green monkey Vero cells assessed as reduction in cell viability at 10 uM after 72 hrs by XTT assay relative to control; format: cell-based; settings: chlorocebus sabaeus
EC50 (Zika virus [2]) [µM],SMILES,inhibition at 10 µM (Zika virus [1]) [%],CC50 at 72 h [3] [µM],selectivity ratio [4],Ratio EC50 (Zika virus [5]),Activity (Vero) [%]
–,Oc1ccccc1C=NCCNc1ccnc2cc(Cl)ccc12,57,–,–,–,–
1.5,O=[N+]([O-])c1ccc(C=NCCNc2ccnc3cc(Cl)ccc23)s1,78,478,318,10,–
1.5,Fc1ccc(C=NCCNc2ccnc3cc(Cl)ccc23)cc1,75,534,356,10,–
1.6,COc1cccc(C=NCCNc2ccnc3cc(Cl)ccc23)c1O,74,487,304,10,–
–,Clc1ccc2c(NCCN=Cc3c(Cl)cccc3Cl)ccnc2c1,–,–,–,–,> 80
1.2,Clc1ccc2c(NCCN=Cc3ccccc3)ccnc2c1,76,489,407,10,–
–,COc1ccc(OC)c(C=NCCNc2ccnc3cc(Cl)ccc23)c1,51,–,–,–,–
–,COc1cc(C=NCCNc2ccnc3cc(Cl)ccc23)cc(OC)c1OC,41,–,–,–,–
0.8,O=[N+]([O-])c1ccc(C=NCCNc2ccnc3cc(Cl)ccc23)o1,72,412,515,10,–
–,COc1ccccc1C=NCCNc1ccnc2cc(Cl)ccc12,70,–,–,–,–
–,O=[N+]([O-])c1cccc(C=NCCNc2ccnc3cc(Cl)ccc23)c1,59,–,–,–,–
3.4,Clc1ccc2c(NCCN=Cc3cccnc3)ccnc2c1,80,578,170,5,–
–,Clc1ccc2c(NCCN=Cc3ccc(Br)cc3)ccnc2c1,52,–,–,–,–
1.5,O=[N+]([O-])c1ccc(C=NCCNc2ccnc3cc(Cl)ccc23)cc1,82,512,341,10,–
–,Clc1ccc(C=NCCNc2ccnc3cc(Cl)ccc23)c(Cl)c1,–,–,–,–,> 80
1.5,COc1cccc(OC)c1C=NCCNc1ccnc2cc(Cl)ccc12,75,458,305,10,–
1.5,Clc1ccc2c(NCCN=Cc3ccncc3)ccnc2c1,74,571,380,10,–
–,Cc1ccc(C=NCCNc2ccnc3cc(Cl)ccc23)cc1,66,–,–,–,–
–,Clc1ccc2c(NCCN=Cc3ccccn3)ccnc2c1,70,–,–,–,–
–,Oc1cccc(C=NCCNc2ccnc3cc(Cl)ccc23)c1O,–,–,–,–,> 80
–,NCCNc1ccnc2cc(Cl)ccc12,43,–,–,–,–
–,CCN(CC)CCCC(C)Nc1ccnc2cc(Cl)ccc12 (stereo not drawn) [CHLOROQUINE],47,–,–,–,–
